# Reference: patent US5298494A, “Monosaccharides having anti-proliferation and anti-inflammatory activity, compositions and uses thereof” (Greenwich Pharmaceuticals Incorporated, priority 1993, dated 1994)
# “Also recorded” adds a separate entry of the source.
# What was measured:
# [1] = system: BUD-8 skin cells; assay: Morphological examination of BUD-8 cultures for compound-induced toxicity; type: cell-based, human
# Description: (§1) After 3 days of culture, 1 uCi ^3 H-thymidine was added in a 50 ul volume to each culture well of the microtiter plates. Eighteen hours later, each of the BUD-8 cultures was examined morphologically for evidence of compound-induced toxicity such as cell rounding or granularity. The thymidine-pulsed cells were then precipitated and the amount of ^3 H-thymidine incorporated was counted in a liquid scintillation counter.
# [2] = system: BUD-8 human skin fibroblasts; assay: Fibroblast assay: proliferation of BUD-8 skin cell fibroblasts; type: cell-based
# Description: The human skin cell fibroblast line, BUD-8 was obtained prior to each assay from the American Type Culture Collection. This is a fibroblast-like cell line which was originally derived from the normal skin of a person.
# BUD-8 cell cultures were expanded for use in 25 cm^2 flasks at 37° C. in an atmosphere of 5% CO2 in air. At approximately 4-5 five day intervals, or when confluence was reached, the cells were passaged. This was accomplished by detaching the cells with a Teflon scraper, washing and reseeding the cells at a lower density into fresh tissue culture flasks.
# The effect of the compound of the present invention on the proliferative capacity of human BUD-8 skin fibroblasts was measured with the use of a ^3 H-thymidine incorporation assay using culture conditions which were similar to those used for a Con-A blastogenesis assay, described previously. Cultured skin cells were detached from the surface of tissue culture flasks mechanically with a Teflon scraper. The cells were washed, resuspended in incubation medium and the viabilities were determined. These cells were then plated in triplicate at a density of 2×10^3 cells/0.1 ml/microtiter well for the proliferation assay and a density of 1×10^4 cells/0.1 ml/microtiter well for the assays to quantitate PGE2 and LTB4. To these cells was added incubation medium containing indomethacin to inhibit prostaglandin production, or nordihydroguaiaretic acid (NDGA) to inhibit leukotriene production (positive controls).
# as §1
# The concentrations of the compounds of the invention which were used in these assays were:
# The incubation medium used for culturing the BUD-8 cells was RPMI-1640 medium containing 10% fetal bovine serum, 100 ug/ml streptomycin, 100 U/ml penicillin, 0.2M Hepes buffer solution, 5×10^-5 M 2-mercaptoethanol and 2 mM glutamine.
smiles,measurement,setting,value
CCCCCCCOCCCO[C@@H]1[C@H]2OC(C)(C)O[C@H]2O[C@@H]1[C@H](O)CO [IIg],"cell toxicity in BUD-8 cultures, in words",[1],Evidence of cell toxicity was observed at the two highest concentrations of compound tested; also recorded: Cell toxicity was again observed in cultures which included 300 and 750 ug/ml of the compound; also recorded: Compound induced cell toxicity was observed only at the highest dose level tested
same,^3 H-Thymidine uptake by BUD-8 skin cells,[2]; 1 ug/ml,"6,096 ± 1,352 cpm"
same,^3 H-Thymidine uptake by BUD-8 skin cells,[2]; 10 ug/ml,"3,552 ± 994 cpm"
same,^3 H-Thymidine uptake by BUD-8 skin cells,[2]; 25 ug/ml,"4,207 ± 450 cpm"
same,^3 H-Thymidine uptake by BUD-8 skin cells,[2]; 100 ug/ml,"4,117 ± 481 cpm"
same,^3 H-Thymidine uptake by BUD-8 skin cells,[2]; 300 ug/ml,"2,233 ± 244 cpm"
same,^3 H-Thymidine uptake by BUD-8 skin cells,[2]; 750 ug/ml,"3,898 ± 1,692 cpm"
same,inhibition at 1 µg/mL,"[2]; Homo sapiens, Skin fibroblast, 1 ug/ml, read-out: % Effect on BUD-8 proliferation",1%
same,inhibition at 10 µg/mL,"[2]; Homo sapiens, Skin fibroblast, 10 ug/ml, read-out: % Effect on BUD-8 proliferation",42%
same,inhibition at 25 µg/mL,"[2]; Homo sapiens, Skin fibroblast, 25 ug/ml, read-out: % Effect on BUD-8 proliferation",32%
same,inhibition at 100 µg/mL,"[2]; Homo sapiens, Skin fibroblast, 100 ug/ml, read-out: % Effect on BUD-8 proliferation",33%
same,inhibition at 300 µg/mL,"[2]; Homo sapiens, Skin fibroblast, 300 ug/ml, read-out: % Effect on BUD-8 proliferation",64%
same,inhibition at 750 µg/mL,"[2]; Homo sapiens, Skin fibroblast, 750 ug/ml, read-out: % Effect on BUD-8 proliferation",37%
